From patent US20170202932A1, “METHODS FOR INHIBITING NEURON APOPTOSIS AND NECROSIS” (NEWSOUTH INNOVATIONS PTY LIMITED, priority 2012, published 2017)

Key:
[1] = target: T1, recombinant mouse TRPC3b channels (Mus musculus, UniProt Q9QZC1, R524G); assay: Indo-1 ratiometric Ca2+ imaging of CCh-activated Ca2+ entry, HEK293 cells expressing TRPC3b; type: cell-based; settings: genistein 200 μM pre-incubation, n=5, without genistein 182.7±20.8 nM
T1 construct: Full length mouse TRPC3 transcripts were obtained by PCR; expressed in transfected cells; host or cells: HEK293 cells, stably transfected (pIRES-DsRed2 vector)
T1 sequence (Q9QZC1 75-910 R524G limits assumed): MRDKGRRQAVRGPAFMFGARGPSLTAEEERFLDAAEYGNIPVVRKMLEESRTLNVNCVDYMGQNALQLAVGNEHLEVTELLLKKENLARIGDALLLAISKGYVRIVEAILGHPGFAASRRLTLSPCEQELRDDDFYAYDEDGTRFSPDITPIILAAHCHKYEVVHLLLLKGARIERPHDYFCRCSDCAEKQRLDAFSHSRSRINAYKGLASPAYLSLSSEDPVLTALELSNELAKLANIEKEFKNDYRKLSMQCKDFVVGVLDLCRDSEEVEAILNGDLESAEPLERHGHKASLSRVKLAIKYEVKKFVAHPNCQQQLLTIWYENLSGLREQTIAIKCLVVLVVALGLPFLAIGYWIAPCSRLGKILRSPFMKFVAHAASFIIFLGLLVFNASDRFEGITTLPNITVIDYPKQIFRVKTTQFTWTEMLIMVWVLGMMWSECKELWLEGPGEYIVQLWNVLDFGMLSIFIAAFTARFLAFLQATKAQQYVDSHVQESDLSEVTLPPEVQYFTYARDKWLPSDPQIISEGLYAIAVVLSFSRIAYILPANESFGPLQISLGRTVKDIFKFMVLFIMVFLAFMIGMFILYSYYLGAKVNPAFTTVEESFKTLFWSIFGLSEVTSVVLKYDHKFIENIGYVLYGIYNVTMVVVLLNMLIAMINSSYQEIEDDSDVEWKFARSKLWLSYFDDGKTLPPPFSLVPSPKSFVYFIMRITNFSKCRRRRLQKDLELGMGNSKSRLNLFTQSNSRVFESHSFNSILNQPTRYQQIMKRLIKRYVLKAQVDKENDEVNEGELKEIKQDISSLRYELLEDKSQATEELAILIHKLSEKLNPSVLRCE
Method: (§1) The TRPC3-mediated Ca^2+ entry through two distinct activation pathways was assessed by microfluorometric Ca^2+ imaging: i) Ca^2+ entry via the M3 receptor-PLCB-DAG pathway endogenous to HEK293 cells, using Indo-1 as a Ca^2+ indicator; and ii) Ca^2+ entry via mGluR1-PLCB-DAG through co-expression of the mGluR1, using Fluo-4 as a Ca^2+ indicator.
Cells were grown in DMEM media on 18 mm circular coverslips coated with poly-D-lysine (25 μg/ml) and collagen (25 μg/ml) at 1:1 ratio. The cells were washed with HPSS. The coverslips were then incubated with HPSS and 0.1% pluronic acid, along with either 1 μM Indo-1AM or Fluo-4AM Ca^2+ indicator (Invitrogen, U.S.A.) for an hour prior to the experiment. The cells were then placed into HPSS with 5 μM GdCl3 to block endogenous Ca^2+ entry (added to all superfusions). The M3 AChR-mediated TRPC3 activation was achieved by bath application of carbachol. The mGluR1-mediated TRPC3 activation was achieved by bath application of DHPG.
For Indo-1 experiments, the cells were mounted on a Nikon TMD inverted microscope fitted with an Indo-1 filter set (Nikon Indo-1 filter cube, 485 nm/DM455 nm/405 nm) and illuminated with a mercury lamp. Cells were excited at 350 nm, with dual emission of the field was detected at 410 nm and 480 nm using two photomultiplier tubes, and the ratioed emission was determined in real-time using in-house software. […]

[2] = target: T2, recombinant mouse TRPC3c channels (Mus musculus, UniProt Q9QZC1, DEL811-838); assay: Fluo-4 Ca2+ imaging of DHPG-activated Ca2+ entry, HEK293 cells co-expressing TRPC3c and mGluR1; type: cell-based; settings: genistein 200 μM pre-application, n=6, without genistein 2.71±0.217
T2 construct: expressed in transfected cells; host or cells: HEK293 cells, stably transfected (pIRES-DsRed2 vector)
T2 sequence (Q9QZC1 with tags, fused parts or gaps DEL811-838): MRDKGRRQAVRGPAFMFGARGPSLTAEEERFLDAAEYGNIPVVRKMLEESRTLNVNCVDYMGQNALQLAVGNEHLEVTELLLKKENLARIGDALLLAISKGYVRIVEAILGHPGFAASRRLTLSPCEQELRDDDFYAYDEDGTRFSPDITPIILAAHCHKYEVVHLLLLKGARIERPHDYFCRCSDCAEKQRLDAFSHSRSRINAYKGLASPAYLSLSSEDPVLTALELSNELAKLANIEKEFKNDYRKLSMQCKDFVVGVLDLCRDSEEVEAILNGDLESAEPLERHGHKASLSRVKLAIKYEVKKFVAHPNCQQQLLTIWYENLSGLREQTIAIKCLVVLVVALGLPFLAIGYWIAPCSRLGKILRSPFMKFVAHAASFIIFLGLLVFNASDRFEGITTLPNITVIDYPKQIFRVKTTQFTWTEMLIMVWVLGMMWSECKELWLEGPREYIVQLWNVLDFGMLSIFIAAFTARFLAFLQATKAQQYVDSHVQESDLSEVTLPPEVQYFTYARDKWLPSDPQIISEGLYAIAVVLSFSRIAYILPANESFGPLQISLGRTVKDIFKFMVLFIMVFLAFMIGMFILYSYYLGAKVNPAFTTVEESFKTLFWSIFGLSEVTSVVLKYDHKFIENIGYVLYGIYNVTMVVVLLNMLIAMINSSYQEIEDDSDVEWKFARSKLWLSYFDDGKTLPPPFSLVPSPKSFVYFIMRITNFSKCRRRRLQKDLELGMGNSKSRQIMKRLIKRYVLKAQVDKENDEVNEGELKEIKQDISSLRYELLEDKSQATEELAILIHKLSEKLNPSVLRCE
Method: as §1
Cells were grown in DMEM media on 18 mm circular coverslips coated with poly-D-lysine (25 μg/ml) and collagen (25 μg/ml) at 1:1 ratio. The cells were washed with HPSS. The coverslips were then incubated with HPSS and 0.1% pluronic acid, along with either 1 μM Indo-1AM or Fluo-4AM Ca^2+ indicator (Invitrogen, U.S.A.) for an hour prior to the experiment. […]
For Fluo-4 experiments, the cells were mounted on an inverted microscope (DMIL, Leica) with a 20× 0.4NA objective (Leica HCX PL Fluotar), and illuminated with a mercury lamp using a GFP filter (part no. 11504164; excitation 470/40 nm, dichroic 500 nm, emission 525/50 nm) every 5 seconds (Andor iXon+ 885 EMCCD Camera, Ireland) with a gated shutter (Ludl Electronic Products, U.S.A.), controlled via Andor IQ (v1.8.1) software. The images were then analysed using Image J software (NIH, U.S.A.) with individual regions of interest (ROIs) identified for HEK293 cells responding to M3 or mGluR1 agonists with increased Ca^2+ signal. […]

## O=c1c(-c2ccc(O)cc2)coc2cc(O)cc(O)c12 [genistein, 4′, 5,7-trihydroxyisoflavone]
[1]
  peak [Ca2+] on return of extracellular Ca2+ (CCh-activated Ca2+ entry): 86.7 ± 8.7 nM
[2]
  Fluo-4 fluorescence F/F0 (TRPC3-mediated Ca2+ entry after DHPG): 0.876±0.0621
